Measured values from US20140228287A1, “1-[(3-CYANO-PYRIDIN-2-YL)METHYL]-3-METHYL-7-(2-BUTYN-1-YL)-8-[3-(R)-AMINO-PIPERIDIN-1-YL]-AXANTHINE FOR THE TREATMENT OF A METABOLIC DISORDER OF A PREDOMINANTLY CARNIVOROUS NON-HUMAN ANIMAL” (BOEHRINGER INGELHEIM VETMEDICA GMBH, priority 2010, published 2014).
Structures can show the parent of a compound that is named as a salt. Where two headings read alike, the source gives them in different places.

What was measured:
[1] = Single dose study (1.0/5.0/10.0 mg/kg) in cats: adverse events; format: in vivo, cat; conditions: single oral 1, 5, 10 mg/kg
Experimental: (§1) The aim of this study was to investigate the PK/PD behaviour of 1-[(3-cyano-pyridin-2-yl)methyl]-3-methyl-7-(2-butyn-1-yl)-8-[3-(R)-amino-piperidin-1-yl]-xanthine in the cat following a single oral administration of 0, 1, 5 and 10 mg/kg body weight (dosages were based on the free base: 1 mg 1-[(3-cyano-pyridin-2-yl)methyl]-3-methyl-7-(2-butyn-1-yl)-8-[3-(R)-amino-piperidin-1-yl]-xanthine monohydrochloride corresponds to 0.923 mg 1-[(3-cyano-pyridin-2-yl)methyl]-3-methyl-7-(2-butyn-1-yl)-8-[3-(R)-amino-piperidin-1-yl]-xanthine free base).
Twelve clinically healthy male adult domestic short hair cats with a body weight range of 3.5-4.7 kg were used in this study. All animals were treated orally once via a stomach tube. Blood samples for pharmacokinetic and pharmacodynamic (DPP IV activity) investigations were drawn at 0 h (i.e. prior to treatment), 30 min as well as 1, 2, 4, 8, 8.5, 9, 12, 24, 36, 48, 72, 84 and 96 h after treatment. Blood samples for pharmacodynamic (glucagon-like peptide 1 concentrations) investigations were drawn at −16 (i.e. prior to feeding), −15.5, −15 h as well as at 8 h (i.e. prior to feeding), 8.5 and 9 h after treatment.

[2] = target: T1, DPP IV (Felis catus, UniProt Q9N2I7); test: Exploratory multiple dose PK/PD (1.0/3.0/9.0 mg/animal, 14 days) in cats: DPP IV activity; format: in vivo, cat; conditions: for response vs control in vivo at 1 mg/animal: head 1 mg/animal (title 1.0 mg/animal); for response vs control in vivo at 1 mg/animal / response vs control in vivo at 3 mg/animal / response vs control in vivo at 9 mg/animal: read-out: DPP IV activity in cat plasma; for response vs control in vivo at 3 mg/animal: head 3 mg/animal (title 3.0 mg/animal)
T1 construct: Blood samples for the determination of this compound and DPP IV activity were collected; from tissue; host or cells: plasma of domestic short hair / purpose-bred cats dosed orally
Experimental: as §1, with “effects” for “behaviour”, “cats” for “the cat”, “repeated” for “a single”, “3” for “5”, “9 mg/animal over 14 days corresponding to a dose of 0, 0.25, 0.75 and 2.25” for “10”, “for a cat weighing 4 kg. (Dosages” for “(dosages”
For this purpose, twelve clinically healthy male adult domestic short hair cats with a body weight range of 3.5-4.8 kg were used. The animals were randomly allocated to 4 groups, 3 animals per group. All animals were treated once daily orally for 14 days (i.e. on days 0-13). The test article was administered via capsules at doses of 1 (group II), 3 (group III) or 9 (group IV) mg of the monohydrochloride compound per animal; group I received placebo serving as controls. Blood samples for PK and PD (DPP IV activity) investigations were drawn at 0 h (i.e. prior to the 1st treatment), 0.5, 1, 2, 4, 8, 12 and 24 h after the 1st treatment as well as 24 h after the 3rd, 5th, 7th, 9th, 11th and 13th treatment and 0.5, 1, 2, 4, 8, 12 and 24 h after the 14th treatment.

[3] = 0.5 h, once daily oral 14 days, 0.5 h
[4] = 1 h, once daily oral 14 days, 1 h
[5] = 2 h, once daily oral 14 days, 2 h
[6] = 4 h, once daily oral 14 days, 4 h
[7] = 8 h, once daily oral 14 days, 8 h
[8] = 12 h, once daily oral 14 days, 12 h
[9] = 24 h, once daily oral 14 days, 24 h
[10] = 72 h, once daily oral 14 days, 72 h
[11] = 120 h, once daily oral 14 days, 120 h
[12] = 168 h, once daily oral 14 days, 168 h
[13] = 216 h, once daily oral 14 days, 216 h
[14] = 264 h, once daily oral 14 days, 264 h
[15] = 312 h, once daily oral 14 days, 312 h
[16] = 312.5 h, once daily oral 14 days, 312.5 h
[17] = 313 h, once daily oral 14 days, 313 h
[18] = 314 h, once daily oral 14 days, 314 h
[19] = 316 h, once daily oral 14 days, 316 h
[20] = 320 h, once daily oral 14 days, 320 h
[21] = 324 h, once daily oral 14 days, 324 h
[22] = 336 h, once daily oral 14 days, 336 h

T1 sequence (Q9N2I7 38-765 limits assumed): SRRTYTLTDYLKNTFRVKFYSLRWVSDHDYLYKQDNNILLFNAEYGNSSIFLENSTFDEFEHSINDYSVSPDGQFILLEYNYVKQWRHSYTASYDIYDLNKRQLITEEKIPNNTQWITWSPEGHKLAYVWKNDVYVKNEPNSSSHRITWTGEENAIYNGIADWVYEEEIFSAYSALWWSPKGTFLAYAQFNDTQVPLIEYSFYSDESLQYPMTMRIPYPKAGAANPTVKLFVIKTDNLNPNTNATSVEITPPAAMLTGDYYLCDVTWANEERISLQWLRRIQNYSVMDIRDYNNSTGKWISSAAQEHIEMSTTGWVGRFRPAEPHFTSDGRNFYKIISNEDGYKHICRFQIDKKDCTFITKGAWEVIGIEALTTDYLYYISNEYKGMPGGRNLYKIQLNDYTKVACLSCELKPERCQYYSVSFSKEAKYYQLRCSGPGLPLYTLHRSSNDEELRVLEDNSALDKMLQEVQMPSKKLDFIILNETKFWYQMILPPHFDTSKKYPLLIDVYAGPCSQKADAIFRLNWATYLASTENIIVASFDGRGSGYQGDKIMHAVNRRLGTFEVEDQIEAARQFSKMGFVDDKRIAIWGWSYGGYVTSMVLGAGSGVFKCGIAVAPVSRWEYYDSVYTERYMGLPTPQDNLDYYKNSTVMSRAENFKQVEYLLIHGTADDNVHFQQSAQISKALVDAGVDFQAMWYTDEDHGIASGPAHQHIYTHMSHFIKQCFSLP

CC#CCn1c(N2CCC[C@@H](N)C2)nc2c1c(=O)n(Cc1ncccc1C#N)c(=O)n2C [1-[(3-cyano-pyridin-2-yl)methyl]-3-methyl-7-(2-butyn-1-yl)-8-[3-(R)-amino-piperidin-1-yl]-xanthine monohydrochloride]
adverse events [1]: No specific adverse events were observed | response vs control in vivo at 1 mg/animal [2, 3]: 31.3% | response vs control in vivo at 3 mg/animal [2, 3]: 16% | response vs control in vivo at 9 mg/animal ([2]; 0.5 h, head 9 mg/animal (title 9.0 mg/animal), once daily oral 14 days, 0.5 h): 8% | response vs control in vivo at 1 mg/animal [2, 4]: 8.7% | response vs control in vivo at 3 mg/animal [2, 4]: 10.3% | response vs control in vivo at 9 mg/animal ([2]; 1 h, head 9 mg/animal (title 9.0 mg/animal), once daily oral 14 days, 1 h): 7.3% | response vs control in vivo at 1 mg/animal [2, 5]: 9.7% | response vs control in vivo at 3 mg/animal [2, 5]: 8% | response vs control in vivo at 9 mg/animal ([2]; 2 h, head 9 mg/animal (title 9.0 mg/animal), once daily oral 14 days, 2 h): 7% | response vs control in vivo at 1 mg/animal [2, 6]: 11.7% | response vs control in vivo at 3 mg/animal [2, 6]: 8% | response vs control in vivo at 9 mg/animal ([2]; 4 h, head 9 mg/animal (title 9.0 mg/animal), once daily oral 14 days, 4 h): 8% | response vs control in vivo at 1 mg/animal [2, 7]: 17% | response vs control in vivo at 3 mg/animal [2, 7]: 11.3% | response vs control in vivo at 9 mg/animal ([2]; 8 h, head 9 mg/animal (title 9.0 mg/animal), once daily oral 14 days, 8 h): 9.3% | response vs control in vivo at 1 mg/animal [2, 8]: 28% | response vs control in vivo at 3 mg/animal [2, 8]: 14% | response vs control in vivo at 9 mg/animal ([2]; 12 h, head 9 mg/animal (title 9.0 mg/animal), once daily oral 14 days, 12 h): 10.7% | response vs control in vivo at 1 mg/animal [2, 9]: 57.7% | response vs control in vivo at 3 mg/animal [2, 9]: 31.7% | response vs control in vivo at 9 mg/animal ([2]; 24 h, head 9 mg/animal (title 9.0 mg/animal), once daily oral 14 days, 24 h): 18% | response vs control in vivo at 1 mg/animal [2, 10]: 35.3% | response vs control in vivo at 3 mg/animal [2, 10]: 23.3% | response vs control in vivo at 9 mg/animal ([2]; 72 h, head 9 mg/animal (title 9.0 mg/animal), once daily oral 14 days, 72 h): 14.3% | response vs control in vivo at 1 mg/animal [2, 11]: 63% | response vs control in vivo at 3 mg/animal [2, 11]: 31.7% | response vs control in vivo at 9 mg/animal ([2]; 120 h, head 9 mg/animal (title 9.0 mg/animal), once daily oral 14 days, 120 h): 17.7% | response vs control in vivo at 1 mg/animal [2, 12]: 54% | response vs control in vivo at 3 mg/animal [2, 12]: 41% | response vs control in vivo at 9 mg/animal ([2]; 168 h, head 9 mg/animal (title 9.0 mg/animal), once daily oral 14 days, 168 h): 14.7% | response vs control in vivo at 1 mg/animal [2, 13]: 57% | response vs control in vivo at 3 mg/animal [2, 13]: 31.7% | response vs control in vivo at 9 mg/animal ([2]; 216 h, head 9 mg/animal (title 9.0 mg/animal), once daily oral 14 days, 216 h): 15% | response vs control in vivo at 1 mg/animal [2, 14]: 32.7% | response vs control in vivo at 3 mg/animal [2, 14]: 19.3% | response vs control in vivo at 9 mg/animal ([2]; 264 h, head 9 mg/animal (title 9.0 mg/animal), once daily oral 14 days, 264 h): 14% | response vs control in vivo at 1 mg/animal [2, 15]: 61.3% | response vs control in vivo at 3 mg/animal [2, 15]: 34% | response vs control in vivo at 9 mg/animal ([2]; 312 h, head 9 mg/animal (title 9.0 mg/animal), once daily oral 14 days, 312 h): 17.3% | response vs control in vivo at 1 mg/animal [2, 16]: 14% | response vs control in vivo at 3 mg/animal [2, 16]: 9% | response vs control in vivo at 9 mg/animal ([2]; 312.5 h, head 9 mg/animal (title 9.0 mg/animal), once daily oral 14 days, 312.5 h): 10% | response vs control in vivo at 1 mg/animal [2, 17]: 14% | response vs control in vivo at 3 mg/animal [2, 17]: 8.3% | response vs control in vivo at 9 mg/animal ([2]; 313 h, head 9 mg/animal (title 9.0 mg/animal), once daily oral 14 days, 313 h): 7.7% | response vs control in vivo at 1 mg/animal [2, 18]: 13.3% | response vs control in vivo at 3 mg/animal [2, 18]: 8.7% | response vs control in vivo at 9 mg/animal ([2]; 314 h, head 9 mg/animal (title 9.0 mg/animal), once daily oral 14 days, 314 h): 7.7% | response vs control in vivo at 1 mg/animal [2, 19]: 14.7% | response vs control in vivo at 3 mg/animal [2, 19]: 9.7% | response vs control in vivo at 9 mg/animal ([2]; 316 h, head 9 mg/animal (title 9.0 mg/animal), once daily oral 14 days, 316 h): 8% | response vs control in vivo at 1 mg/animal [2, 20]: 22.3% | response vs control in vivo at 3 mg/animal [2, 20]: 12.3% | response vs control in vivo at 9 mg/animal ([2]; 320 h, head 9 mg/animal (title 9.0 mg/animal), once daily oral 14 days, 320 h): 10.3% | response vs control in vivo at 1 mg/animal [2, 21]: 32.3% | response vs control in vivo at 3 mg/animal [2, 21]: 15% | response vs control in vivo at 9 mg/animal ([2]; 324 h, head 9 mg/animal (title 9.0 mg/animal), once daily oral 14 days, 324 h): 12% | response vs control in vivo at 1 mg/animal [2, 22]: 67.7% | response vs control in vivo at 3 mg/animal [2, 22]: 31.3% | response vs control in vivo at 9 mg/animal ([2]; 336 h, head 9 mg/animal (title 9.0 mg/animal), once daily oral 14 days, 336 h): 18.7% | time up to which mean DPP IV values remained ≦20% after 1st treatment ([2]; group II (1 mg per animal)): 8 h | time up to which mean DPP IV values remained ≦20% after the 14th treatment ([2]; group II (1 mg per animal)): 4 h | minimum mean DPP IV values after treatment on day 0 ([2]; group II (1 mg per animal), at 1 h): 9% | mean DPP IV activity, range 24 h after 3rd-13th treatment (72-312 h) ([2]; group II (1 mg/cat)): 33-63% | time up to which mean DPP IV values remained ≦20% after 1st treatment ([2]; group III (3 mg per animal)): 12 h | time up to which mean DPP IV values remained ≦20% after the 14th treatment ([2]; group III (3 mg per animal)): 12 h | minimum mean DPP IV values after treatment on day 0 ([2]; group III (3 mg per animal), at 2 and 4 h): 8% | mean DPP IV activity, range 24 h after 3rd-13th treatment (72-312 h) ([2]; group III (3 mg/cat)): 19-41% | time up to which mean DPP IV values remained ≦20% after 1st treatment ([2]; group IV (9 mg per animal)): 24 h | time up to which mean DPP IV values remained ≦20% after the 14th treatment ([2]; group IV (9 mg per animal)): 24 h | minimum mean DPP IV values after treatment on day 0 ([2]; group IV (9 mg per animal), at 1 and 2 h): 7% | mean DPP IV activity, range 24 h after 3rd-13th treatment (72-312 h) ([2]; group IV (9 mg/cat)): 14-18% | DPP IV activity in cat plasma ([2]; head 9 mg/animal (title 9.0 mg/animal), once daily oral 14 days, 312.5 h, monohydrochloride): 10.0%
